Test results from PMC10163738, “Switch from a ritonavir to a cobicistat containing antiretroviral regimen and impact on tacrolimus levels in a kidney transplant recipient” (Virology Journal, 2023).
Like-named read-outs stand apart in the source and are kept apart here. Marks after values point to notes of the source that are not given here.

Assays:
[1] = Tacrolimus pharmacokinetic profiles and trough level monitoring before and after switch of booster from ritonavir to cobicistat in an HIV-infected kidney transplant recipient; type: in vivo, human; conditions: for AUC(0-t): read-out: AUC264h; for half-life: read-out: T1/2 (elimination half-life) (converted)
Text: Due to the high daily pill burden (i.e., 4 tablets mycophenolate mofetil, 10 tablets for the antiretroviral regimen, 7 pills for the treatment of cardiovascular risk factors, and 8 pills for additional indications), and with new combination antiretroviral pills available, a treatment simplification was envisaged. A feasible antiretroviral treatment considering the multi-drug resistant HIV virus was the combination of dolutegravir (INSTI), rilpivirine (NNRTI), maraviroc and the single tablet combination including emtricitabine, tenofovir alafenamide and darunavir boosted with cobicistat (darunavir/c). […] Due to the inducing properties of ritonavir, we predicted that a switch to cobicistat could result in higher tacrolimus concentrations. During three weeks before and three weeks after the switch we closely monitored tacrolimus drug levels (3 full pharmacokinetic profiles before and after changing the booster) to evaluate the effect on tacrolimus exposure (Figs. 1, 2).
Fig. 1 Tacrolimus profiles during ritonavir-boosted and cobicistat-boosted antiretroviral regimens. Three 11 days pharmacokinetic tacrolimus concentrations profiles in blue while on the ritonavir-boosted regimen before the switch and in red while on the cobicistat-boosted regimen after the switch. *For practical reasons (weekend, holidays) tacrolimus trough levels were measured on day 9 at the end of the third pharmacokinetic profile and on day 10 at the end of the sixth pharmacokinetic profile
Fig. 2 Antiretroviral treatment and tacrolimus trough levels before and after therapy switch. Blue bars indicate drugs before switch and blue dots tacrolimus levels before switch. Red bars indicate drugs after switch and red dots indicate tacrolimus trough levels after switch.

[2] = as above; type: in vivo, human; conditions: co-administered with darunavir/ritonavir 800/100 mg once daily, 3rd pharmacokinetic profile, dosing interval 10 days for practical reasons
[3] = design: method as in PMID 25708713; conditions: co-administered with ritonavir; cited from earlier work
[4] = renal transplant recipients in absence of strong inhibitors; cited from earlier work
[5] = human, plasma, oral, co-administered with darunavir/cobicistat 800/150 mg once daily, 1st pharmacokinetic profile
[6] = human, plasma, oral, co-administered with darunavir/cobicistat 800/150 mg once daily, 2nd pharmacokinetic profile
[7] = human, plasma, oral, co-administered with darunavir/cobicistat 800/150 mg once daily, 3rd pharmacokinetic profile

C=CC[C@@H]1/C=C(\C)C[C@H](C)C[C@H](OC)[C@H]2O[C@@](O)(C(=O)C(=O)N3CCCC[C@H]3C(=O)O[C@H](/C(C)=C/[C@@H]3CC[C@@H](O)[C@H](OC)C3)[C@H](C)[C@@H](O)CC1=O)[C@H](C)C[C@@H]2OC [Tacrolimus, tacrolimus]
Tmax ([1]; co-administered with darunavir/cobicistat 800/150 mg once daily, 1st pharmacokinetic profile): 2 h
C0h (pre-dose plasma concentration) ([1]; co-administered with darunavir/cobicistat 800/150 mg once daily, 2nd pharmacokinetic profile, tacrolimus once every 11 days): 4.1 µg/L
C0h (pre-dose plasma concentration) ([1]; co-administered with darunavir/cobicistat 800/150 mg once daily, 3rd (sixth overall) pharmacokinetic profile, dosing interval 10 days for practical reasons): 4.0^a µg/L
C0h (pre-dose plasma concentration) ([1]; co-administered with darunavir/ritonavir 800/100 mg once daily, 1st pharmacokinetic profile, tacrolimus once every 11 days): 7.3 µg/L
C0h (pre-dose plasma concentration) ([1]; co-administered with darunavir/ritonavir 800/100 mg once daily, 2nd pharmacokinetic profile, tacrolimus once every 11 days): 6.1 µg/L
C0h (pre-dose plasma concentration) ([1]; darunavir/cobicistat 800/150 mg once daily section, 1st profile, trough at the day of the switch, i.e. last trough on darunavir/ritonavir, immediately before darunavir/cobicistat): 6.8^b µg/L
tacrolimus trough level ([1]; eleven months post pharmacokinetic booster switch (cobicistat-boosted regimen), dosing interval 11 days): 2.1 µg/L
Cmax ([1]; human, plasma, oral, 0.5 mg, co-administered with darunavir/ritonavir 800/100 mg once daily, 1st pharmacokinetic profile): 15.1 ng/mL
Cmax ([1]; human, plasma, oral, 0.5 mg, co-administered with darunavir/ritonavir 800/100 mg once daily, 2nd pharmacokinetic profile): 17.7 ng/mL
Cmax ([1]; human, plasma, oral, 0.5 mg, co-administered with darunavir/ritonavir 800/100 mg once daily, 3rd pharmacokinetic profile): 17.6 ng/mL
Cmax [1, 5]: 11.7 ng/mL
AUC(0-t) ([1]; human, plasma, oral, co-administered with darunavir/cobicistat 800/150 mg once daily, 1st pharmacokinetic profile, dosing interval 11 days): 1750 ng·h/mL
half-life [1, 5]: 226 h
Cmax [1, 6]: 13.7 ng/mL
AUC(0-t) ([1]; human, plasma, oral, co-administered with darunavir/cobicistat 800/150 mg once daily, 2nd pharmacokinetic profile, dosing interval 11 days): 1870 ng·h/mL
half-life [1, 6]: 175 h
Tmax ([1]; human, plasma, oral, co-administered with darunavir/cobicistat 800/150 mg once daily, 2nd pharmacokinetic profile, read-out: Tmax): 8 h
Cmax [1, 7]: 12.6 ng/mL
half-life [1, 7]: 183 h
Tmax ([1]; human, plasma, oral, co-administered with darunavir/cobicistat 800/150 mg once daily, 3rd pharmacokinetic profile, read-out: Tmax): 4 h
AUC(0-t) ([1]; human, plasma, oral, co-administered with darunavir/ritonavir 800/100 mg once daily, 1st pharmacokinetic profile, dosing interval 11 days): 2650 ng·h/mL
half-life ([1]; human, plasma, oral, co-administered with darunavir/ritonavir 800/100 mg once daily, 1st pharmacokinetic profile): 227 h
Tmax ([1]; human, plasma, oral, co-administered with darunavir/ritonavir 800/100 mg once daily, 1st pharmacokinetic profile, read-out: Tmax): 8 h
AUC(0-t) ([1]; human, plasma, oral, co-administered with darunavir/ritonavir 800/100 mg once daily, 2nd pharmacokinetic profile, dosing interval 11 days): 2380 ng·h/mL
half-life ([1]; human, plasma, oral, co-administered with darunavir/ritonavir 800/100 mg once daily, 2nd pharmacokinetic profile): 275 h
Tmax ([1]; human, plasma, oral, co-administered with darunavir/ritonavir 800/100 mg once daily, 2nd pharmacokinetic profile, read-out: Tmax): 4 h
half-life ([1]; human, plasma, oral, co-administered with darunavir/ritonavir 800/100 mg once daily, 3rd pharmacokinetic profile): 266 h
Tmax ([1]; human, plasma, oral, co-administered with darunavir/ritonavir 800/100 mg once daily, 3rd pharmacokinetic profile, read-out: Tmax): 4 h
AUC(0-t) ([1]; human, plasma, oral, co-administered with darunavir/cobicistat 800/150 mg once daily, 3rd (sixth overall) pharmacokinetic profile, dosing interval 10 days for practical reasons): 1240 ng·h/mL
C0h (pre-dose plasma concentration) [2]: 6.2^a µg/L
AUC(0-t) ([2]; human, plasma, oral, read-out: AUC264h): 2350 ng·h/mL
increase of tacrolimus elimination half-life [3]: sevenfold
increase of tacrolimus exposure [3]: 57 fold
CL/F [4]: 6.7 L/h
T1/2 [4]: 15.6 h
